In patent publication US8980569B2, “Chronic lymphocytic leukemia prognosis and treatment” (Duke University, priority 2007, dated 2015):
pEC50: −log10 of the molar value.

System: CLL cells
Conditions: freshly isolated CLL cells

`COc1cc2c(cc1O)CC[C@@H]1[C@@H]2CC[C@]2(C)[C@@H](O)CC[C@@H]12` [2-ME, 2-methoxyestradiol] gave a percent cytotoxicity (at 10 μM, 72 hours) of 71% and a pEC50 (read-out: effective dose for 50% killing (ED50), incubated 72 hours) of 5.12.
